Laboratory results from patent publication US20230085307A1, “PYRIDAZINONE COMPOUND AND HERBICIDE” (NISSAN CHEMICAL CORPORATION, priority 2019, published 2023).

Experiments:
Italian ryegrass = test: Test Example 4: herbicidal effect by soil treatment (Table 19, symbol K); type: in vivo, Italian ryegrass (Lolium multiflorum); details: amount of applied herbicide 320 g/ha
Method in brief: (§1)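 Herbicidal effect was rated 3 weeks after treatment, using the scoring criteria of an earlier test. The compound, formulated as an emulsion and diluted in water to a set herbicide amount, had been sprayed uniformly on soil over freshly sown seeds. Growth took place in a greenhouse at 25° C. to 30° C.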

wild oat [1] = test: Test Example 5: herbicidal effect by foliage application, plastic box (Table 20, symbol I); type: in vivo, wild oat (Avena fatua); details: for herbicidal effect on wild oat (I): foliage application, 320 g/ha, three weeks after application
Method in brief: (§2)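 Foliar spray test: emulsion formulation diluted in water to a set application rate, sprayed onto 14-day-old plants raised in diluvial soil at 25° C to 30° C under glass. Both herbicidal effect and crop effect rated visually three weeks later.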

barnyard grass [2] = test: Test Example 3: herbicidal effect by foliage application, Wagner pot (Table 18, symbol H); type: in vivo, barnyard grass (Echinochloa crus-galli); details: 320 g/ha
Method in brief: (§3)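 Plants were sown in alluvial soil held under 0.1–0.5 cm standing water and grown 14 days in a greenhouse at 25–30 °C. An emulsifiable formulation, water-diluted to the set dose, was then sprayed onto the foliage, and effects were scored three weeks later using previously defined criteria.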

southern crabgrass [3] = test: Test Example 5: herbicidal effect by foliage application, plastic box (Table 20, symbol F); type: in vivo, southern crabgrass (Digitaria ciliaris); details: for herbicidal effect on southern crabgrass (F): foliage application, 320 g/ha, three weeks after application
Method in brief: as §2

redroot pigweed = test: Test Example 4: herbicidal effect by soil treatment (Table 19, symbol N); type: in vivo, redroot pigweed (Amaranthus retroflexus); details: amount of applied herbicide 320 g/ha
Method in brief: as §1

Japanese bulrush = test: Test Example 1: herbicidal activity, application before weed generation under submerged conditions (Table 16, symbol B); type: in vivo, Japanese bulrush (Schoenoplectus juncoides); details: amount of applied herbicide 320 g/ha
Method in brief: (§4)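 Emulsion formulation, water-diluted to set dose, was put onto the flooded surface (4 cm depth, alluvial soil) the same day weeds were sown and 2.5-leaf rice transplanted. After 3 weeks at 25-30 °C under glass, each species was rated 0 (≤5% kill) to 5 (≥90% kill).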

wild oat [4] = test: Test Example 4: herbicidal effect by soil treatment (Table 19, symbol I); type: in vivo, wild oat (Avena fatua); details: amount of applied herbicide 320 g/ha
Method in brief: as §1

barnyard grass [5] = test: Test Example 5: herbicidal effect by foliage application, plastic box (Table 20, symbol H); type: in vivo, barnyard grass (Echinochloa crus-galli); details: for herbicidal effect on barnyard grass (H): foliage application, 320 g/ha, three weeks after application
Method in brief: as §2

persian speedwell = test: Test Example 5: herbicidal effect by foliage application, plastic box (Table 20, symbol R); type: in vivo, Persian speedwell (Veronica persica); details: for herbicidal effect on persian speedwell (R): foliage application, 320 g/ha, three weeks after application
Method in brief: as §2

southern crabgrass [6] = test: Test Example 4: herbicidal effect by soil treatment (Table 19, symbol F); type: in vivo, southern crabgrass (Digitaria ciliaris); details: amount of applied herbicide 320 g/ha
Method in brief: as §1

Chinese sprangletop = test: Test Example 3: herbicidal effect by foliage application, Wagner pot (Table 18, symbol D); type: in vivo, chinese sprangletop (Leptochloa chinensis); details: 320 g/ha
Method in brief: as §3

oval-leafed pondweed = test: Test Example 1: herbicidal activity, application before weed generation under submerged conditions (Table 16, symbol C); type: in vivo, oval-leafed pondweed (Monochoria vaginalis); details: amount of applied herbicide 320 g/ha
Method in brief: as §4

blackgrass [7] = test: Test Example 4: herbicidal effect by soil treatment (Table 19, symbol J); type: in vivo, blackgrass (Alopecurus myosuroides); details: amount of applied herbicide 320 g/ha
Method in brief: as §1

blackgrass [8] = test: Test Example 5: herbicidal effect by foliage application, plastic box (Table 20, symbol J); type: in vivo, blackgrass (Alopecurus myosuroides); details: for herbicidal effect on blackgrass (J): foliage application, 320 g/ha, three weeks after application
Method in brief: as §2

windgrass = test: Test Example 5: herbicidal effect by foliage application, plastic box (Table 20, symbol L); type: in vivo, windgrass (Apera spica-venti); details: for herbicidal effect on windgrass (L): foliage application, 320 g/ha, three weeks after application
Method in brief: as §2

lambsquarters = test: Test Example 5: herbicidal effect by foliage application, plastic box (Table 20, symbol O); type: in vivo, lambsquarters (Chenopodium album); details: for herbicidal effect on lambsquarters (O): foliage application, 320 g/ha, three weeks after application
Method in brief: as §2

[9] = amount of applied herbicide 320 g/ha, foliage application after 14-day growth, evaluated three weeks after application

| Compound | K: Italian ryegrass, herbicidal effect grade (Italian ryegrass) | herbicidal effect on barnyard grass (H) (barnyard grass [2]) | N: redroot pigweed, herbicidal effect grade (redroot pigweed) | Herbicidal effect, B: Japanese bulrush (Japanese bulrush) | I: wild oat, herbicidal effect grade (wild oat [4]) | F: southern crabgrass, herbicidal effect grade (southern crabgrass [6]) | herbicidal effect on Chinese sprangletop (D) (Chinese sprangletop) | Herbicidal effect, C: oval-leafed pondweed (oval-leafed pondweed) | J: blackgrass, herbicidal effect grade (blackgrass [7]) | herbicidal effect on wild oat (I) (wild oat [1]) | herbicidal effect on southern crabgrass (F) (southern crabgrass [3]) | herbicidal effect on barnyard grass (H) (barnyard grass [5]) | herbicidal effect on persian speedwell (R) (persian speedwell) | herbicidal effect on blackgrass (J) (blackgrass [8]) | herbicidal effect on windgrass (L) (windgrass) | herbicidal effect on lambsquarters (O) (lambsquarters) | also measured |
| --- | --- | --- | --- | --- | --- | --- | --- | --- | --- | --- | --- | --- | --- | --- | --- | --- | --- |
| COc1ccc(-c2sc3cc(Cl)c(Cl)cc3c2-c2c(O)c(C)nn(C)c2=O)cc1 [5-043] | 0 (Herbicidal rate of 5% or less (almost no effect)) | 3 (Herbicidal rate of 40% or more and less than 70%) | 0 (Herbicidal rate of 5% or less (almost no effect)) | 2 (Herbicidal rate of 20% or more and less than 40%) | 0 (Herbicidal rate of 5% or less (almost no effect)) | 0 (Herbicidal rate of 5% or less (almost no effect)) | 3 (Herbicidal rate of 40% or more and less than 70%) | 0 (Herbicidal rate of 5% or less (almost no effect)) | 0 (Herbicidal rate of 5% or less (almost no effect)) |  |  |  |  |  |  |  | Herbicidal effect by foliage application, I: wild oat (wild oat [1]; [9]): 0 (Herbicidal rate of 5% or less (almost no effect)); Herbicidal effect by foliage application, F: southern crabgrass (southern crabgrass [3]; [9]): 0 (Herbicidal rate of 5% or less (almost no effect)); Herbicidal effect by foliage application, H: barnyard grass (barnyard grass [5]; [9]): 0 (Herbicidal rate of 5% or less (almost no effect)); Herbicidal effect by foliage application, R: persian speedwell (persian speedwell; [9]): 5 (Herbicidal rate of 90% or more (almost completely withered)); Herbicidal effect by foliage application, J: blackgrass (blackgrass [8]; [9]): 0 (Herbicidal rate of 5% or less (almost no effect)); Herbicidal effect by foliage application, L: windgrass (windgrass; [9]): 0 (Herbicidal rate of 5% or less (almost no effect)); Herbicidal effect by foliage application, O: lambsquarters (lambsquarters; [9]): 3 (Herbicidal rate of 40% or more and less than 70%) |
| COc1ccccc1-c1sc2cc(C)c(C)cc2c1-c1c(O)c(C)nn(C)c1=O [5-090] | 5 (Herbicidal rate of 90% or more (almost completely withered)) | 5 (Herbicidal rate of 90% or more (almost completely withered)) | 0 (Herbicidal rate of 5% or less (almost no effect)) | 3 (Herbicidal rate of 40% or more and less than 70%) | 0 (Herbicidal rate of 5% or less (almost no effect)) | 0 (Herbicidal rate of 5% or less (almost no effect)) | 2 (Herbicidal rate of 20% or more and less than 40%) | 3 (Herbicidal rate of 40% or more and less than 70%) | 0 (Herbicidal rate of 5% or less (almost no effect)) | 0 (Herbicidal rate of 5% or less (almost no effect)) | 1 (Herbicidal rate of 5% or more and less than 20%) | 4 (Herbicidal rate of 70% or more and less than 90%) | 4 (Herbicidal rate of 70% or more and less than 90%) | 4 (Herbicidal rate of 70% or more and less than 90%) | 4 (Herbicidal rate of 70% or more and less than 90%) | 4 (Herbicidal rate of 70% or more and less than 90%) |  |
| CCCC(=O)Oc1c(C)nn(C)c(=O)c1-c1c(-c2ccccc2OCC)sc2cc(C)c(C)cc12 [5-095] | 0 (Herbicidal rate of 5% or less (almost no effect)) | 5 (Herbicidal rate of 90% or more (almost completely withered)) | 0 (Herbicidal rate of 5% or less (almost no effect)) | 4 (Herbicidal rate of 70% or more and less than 90%) | 0 (Herbicidal rate of 5% or less (almost no effect)) | 0 (Herbicidal rate of 5% or less (almost no effect)) | 5 (Herbicidal rate of 90% or more (almost completely withered)) | 4 (Herbicidal rate of 70% or more and less than 90%) | 0 (Herbicidal rate of 5% or less (almost no effect)) | 3 (Herbicidal rate of 40% or more and less than 70%) | 5 (Herbicidal rate of 90% or more (almost completely withered)) | 4 (Herbicidal rate of 70% or more and less than 90%) | 5 (Herbicidal rate of 90% or more (almost completely withered)) | 4 (Herbicidal rate of 70% or more and less than 90%) | 4 (Herbicidal rate of 70% or more and less than 90%) | 3 (Herbicidal rate of 40% or more and less than 70%) |  |
| CCOc1cc(F)ccc1-c1sc2cc(C)c(C)cc2c1-c1c(O)c(C)nn(C)c1=O [5-103] | 1 (Herbicidal rate of 5% or more and less than 20%) | 5 (Herbicidal rate of 90% or more (almost completely withered)) | 2 (Herbicidal rate of 20% or more and less than 40%) | 4 (Herbicidal rate of 70% or more and less than 90%) | 0 (Herbicidal rate of 5% or less (almost no effect)) | 4 (Herbicidal rate of 70% or more and less than 90%) | 4 (Herbicidal rate of 70% or more and less than 90%) | 4 (Herbicidal rate of 70% or more and less than 90%) | 0 (Herbicidal rate of 5% or less (almost no effect)) | 4 (Herbicidal rate of 70% or more and less than 90%) | 5 (Herbicidal rate of 90% or more (almost completely withered)) | 5 (Herbicidal rate of 90% or more (almost completely withered)) | 5 (Herbicidal rate of 90% or more (almost completely withered)) | 4 (Herbicidal rate of 70% or more and less than 90%) | 5 (Herbicidal rate of 90% or more (almost completely withered)) | 4 (Herbicidal rate of 70% or more and less than 90%) |  |
